In patent US20070122376A1, “Pheromones and method of preventing infestation of Contarinia nasturtii” (priority 2004, published 2007):

Experiments:
[1] = test system: male antenna; experiment: GC-EAD electrophysiological recording of male antennal response; design: species or system Contarinia nasturtii; conditions: natural peaks of ovipositor extract, identified by mass spectra and coelution with synthetics
Procedure: The pots with infested soil were put in glass cages (28×28×33 cm) and kept at L/D 18/6, 25° C., and RH 70% for the adults to emerge. After emergence, males and females were transferred to separate cages. Females were kept under the conditions mentioned and males were kept at L/D 18/6, 15° C., and RH 75%. […] The ovipositors were collected in a vial kept in liquid nitrogen and then extracted for 1-2 min redistilled hexane (LabScan). Extracts were kept in sealed glass capillaries at −18° C. until use.
Male antennal response to ovipositor extracts was analyzed by gas chromatography 25 with electroantennographic detection (GC-EAD). The GC used was a Hewlett Packard 6890 GC with flame ionization detection and an Innowax column (30m×0.25 mm ID, Hewlett Packard, USA). The column temperature was programmed from 80° C. (2 min hold) to 230° C. at 10° C./min. The antennal recordings were made using a Plexiglass holder with two wells connected to an amplifier by gold wire electrodes (JoAC, Lund, Sweden; Zhang et al., 1997; Hillbur, 2001). Male insects were mounted in the holder as described by Hillbur et al. (2000). […] Antennal signals were amplified (JoAC) before they were recorded and analyzed with ElectroAntennoGraphy software (Syntech, Hilversum, The Netherlands).

[2] = test system: male C. nasturtii; experiment: Wind tunnel assay of male response (landing on odour source); type: in vivo, Contarinia nasturtii; conditions: for landings on the odor source, response to single component: each component tested individually at the concentrations indicated (FIG. 4), N>=20; for males flying towards the odour source: single components tested individually
Procedure: Calling females were collected from the laboratory culture and submersed in batches in hexane (p.a. grade) for 15 min at room temperature. The supernatant was then decanted and concentrated to the highest concentration tested by blowing off the hexane with N2.
Wind tunnel experiments were performed in the 2nd to 4th hour of the photophase at 22° C. and 73% r.h. in a wind tunnel described in detail by Rauscher et al. (1984). Compounds were diluted in hexane (p.a. grade). For the bioassays, 10 p 1 of the stimulus to be tested was applied onto a piece of fitter paper (Chromatographiepapier “Schleicher & Schuell AG” Auer-Bittmann Soulié AG, Zurich, Switzerland, 69.2 gr/m2, 1 cm^2)which was then placed in the air stream at least 20 sec before the first male was tested. For each stimulus, a series of five males were tested individually, requiring a total of 5-10 min for each series. For each series, a new piece of filter paper was loaded with the respective stimulus.
Males were kept individually in glass tubes (10 cm, 15 mm i.d.) closed at one end with a piece of screen (mesh size 1×1 mm) until they were tested. With these tubes they were transferred into the wind tunnel, where the tube was placed on a pole in horizontal position with the opening upwind, at a distance of 130 cm downwind from the odor source. Time recording was then started and the following steps recorded. Activation by wing-fanning, take off, directed flight towards the odor source, flights closer than 30 cm from the source (“close in”), landing on the source or elsewhere. The test was stopped when no activity or take off was registered during […] or when the insect landed elsewhere.
Of the recorded parameters only the number of successful landings on the source were analyzed

SMILES: CC(=O)O[C@@H](C)CCCCCCC[C@H](C)OC(C)=O [(2S,10S)-diacetoxyundecane, (2S,10S)-Diacetoxyundecane]
- male antennal response (GC-EAD) [1]: EAD-active
- landings on the odor source, response to single component [2]: 0
- males flying towards the odour source [2]: no males flew towards the odour source

SMILES: CCCCCCCCC[C@H](C)OC(C)=O [(2S)-acetoxyundecane, (2S)-Acetoxyundecane]
- most attractive concentration of (2S)-acetoxyundecane in blend ([2]; blends with 1.5 ng/dispenser (2S,9S)- and 3.0 ng/dispenser (2S,10S)-diacetoxyundecane): 0.03 ng/dispenser
- effect of higher concentrations of (2S)-acetoxyundecane on proportion of male landing ([2]; concentrations higher than 0.03 ng/dispenser in blend with 1.5 ng 2S,9S and 3.0 ng 2S,10S): inhibitory
- landings on the odor source, response to single component [2]: 0
- males flying towards the odour source [2]: no males flew towards the odour source

SMILES: CC[C@@H](CCCCCC[C@H](C)OC(C)=O)OC(C)=O [(2S,9S)-diacetoxyundecane, (2S,9S)-Diacetoxyundecane]
- male antennal response (GC-EAD) [1]: EAD-active
- landings on the odor source, response to single component [2]: 0
- males flying towards the odour source [2]: no males flew towards the odour source
